Reference: patent US10501461B2, “Tyrosine amide derivatives as Rho-kinase inhibitors” (CHIESI FARMACEUTICI S.P.A., priority 2017, dated 2019)

Assays:
Rho kinase 2 (ROCK-II) = Rho kinase 2 (ROCK-II) (Homo sapiens, UniProt O75116); assay: In vitro Rho kinase inhibitory activity assay (ADP-Glo), Rho kinase 2; type: biochemical; settings: 10 μM ATP, 25° C., expressed as range of activity
Outline: (§1)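 First, compound was incubated with either Rho kinase isoform for 30 mins at 25 °C; next, ATP was added to 10 μM final with 2.5 μM Myelin Basic Protein substrate; after 1 hour, ADP formed was detected by ADP-Glo luminescence. Dose-response data yielded IC50, converted to Ki using Cheng-Prusoff.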

Rho kinase 1 (ROCK-I) = Rho kinase 1 (ROCK-I) (Homo sapiens, UniProt Q13464); assay: In vitro Rho kinase inhibitory activity assay (ADP-Glo), Rho kinase 1; type: biochemical; settings: 10 μM ATP, 25° C., expressed as range of activity
Outline: as §1

Chain of Rho kinase 2 (ROCK-II) (O75116 whole entry, canonical isoform): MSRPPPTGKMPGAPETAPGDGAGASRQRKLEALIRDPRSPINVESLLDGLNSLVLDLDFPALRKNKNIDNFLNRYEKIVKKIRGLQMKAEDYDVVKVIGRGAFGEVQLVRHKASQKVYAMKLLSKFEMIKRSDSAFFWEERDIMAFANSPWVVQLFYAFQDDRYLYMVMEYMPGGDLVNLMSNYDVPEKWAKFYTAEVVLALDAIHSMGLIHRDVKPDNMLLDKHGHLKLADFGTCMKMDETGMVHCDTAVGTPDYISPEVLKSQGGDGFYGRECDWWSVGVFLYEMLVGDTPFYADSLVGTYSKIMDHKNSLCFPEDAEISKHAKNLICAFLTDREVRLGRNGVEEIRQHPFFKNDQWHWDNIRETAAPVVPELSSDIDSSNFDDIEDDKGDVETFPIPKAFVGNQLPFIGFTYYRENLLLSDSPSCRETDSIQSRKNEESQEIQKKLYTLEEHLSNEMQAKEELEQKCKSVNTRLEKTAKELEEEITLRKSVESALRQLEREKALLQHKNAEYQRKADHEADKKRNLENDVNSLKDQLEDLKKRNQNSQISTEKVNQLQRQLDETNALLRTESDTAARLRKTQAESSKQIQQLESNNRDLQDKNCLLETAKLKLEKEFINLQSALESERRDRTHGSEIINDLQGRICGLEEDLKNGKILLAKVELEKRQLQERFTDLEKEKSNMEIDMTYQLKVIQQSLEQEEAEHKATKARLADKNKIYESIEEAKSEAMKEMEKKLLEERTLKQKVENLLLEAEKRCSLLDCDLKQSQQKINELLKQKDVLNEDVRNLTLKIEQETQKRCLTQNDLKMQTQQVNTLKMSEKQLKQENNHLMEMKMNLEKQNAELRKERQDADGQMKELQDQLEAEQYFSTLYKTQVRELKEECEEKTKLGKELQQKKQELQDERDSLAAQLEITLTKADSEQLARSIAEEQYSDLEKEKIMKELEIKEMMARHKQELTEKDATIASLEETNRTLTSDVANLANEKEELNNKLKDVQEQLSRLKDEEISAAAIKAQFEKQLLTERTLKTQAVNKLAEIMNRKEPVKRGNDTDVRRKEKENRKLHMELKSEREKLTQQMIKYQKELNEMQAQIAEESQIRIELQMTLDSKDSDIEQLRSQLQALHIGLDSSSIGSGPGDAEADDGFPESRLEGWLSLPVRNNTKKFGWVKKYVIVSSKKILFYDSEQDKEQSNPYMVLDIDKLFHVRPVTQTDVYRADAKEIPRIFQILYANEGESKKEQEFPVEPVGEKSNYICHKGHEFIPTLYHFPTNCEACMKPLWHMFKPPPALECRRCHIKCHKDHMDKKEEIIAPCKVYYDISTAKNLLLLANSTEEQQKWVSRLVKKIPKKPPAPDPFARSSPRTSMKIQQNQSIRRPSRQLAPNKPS
Chain of Rho kinase 1 (ROCK-I) (Q13464 whole entry): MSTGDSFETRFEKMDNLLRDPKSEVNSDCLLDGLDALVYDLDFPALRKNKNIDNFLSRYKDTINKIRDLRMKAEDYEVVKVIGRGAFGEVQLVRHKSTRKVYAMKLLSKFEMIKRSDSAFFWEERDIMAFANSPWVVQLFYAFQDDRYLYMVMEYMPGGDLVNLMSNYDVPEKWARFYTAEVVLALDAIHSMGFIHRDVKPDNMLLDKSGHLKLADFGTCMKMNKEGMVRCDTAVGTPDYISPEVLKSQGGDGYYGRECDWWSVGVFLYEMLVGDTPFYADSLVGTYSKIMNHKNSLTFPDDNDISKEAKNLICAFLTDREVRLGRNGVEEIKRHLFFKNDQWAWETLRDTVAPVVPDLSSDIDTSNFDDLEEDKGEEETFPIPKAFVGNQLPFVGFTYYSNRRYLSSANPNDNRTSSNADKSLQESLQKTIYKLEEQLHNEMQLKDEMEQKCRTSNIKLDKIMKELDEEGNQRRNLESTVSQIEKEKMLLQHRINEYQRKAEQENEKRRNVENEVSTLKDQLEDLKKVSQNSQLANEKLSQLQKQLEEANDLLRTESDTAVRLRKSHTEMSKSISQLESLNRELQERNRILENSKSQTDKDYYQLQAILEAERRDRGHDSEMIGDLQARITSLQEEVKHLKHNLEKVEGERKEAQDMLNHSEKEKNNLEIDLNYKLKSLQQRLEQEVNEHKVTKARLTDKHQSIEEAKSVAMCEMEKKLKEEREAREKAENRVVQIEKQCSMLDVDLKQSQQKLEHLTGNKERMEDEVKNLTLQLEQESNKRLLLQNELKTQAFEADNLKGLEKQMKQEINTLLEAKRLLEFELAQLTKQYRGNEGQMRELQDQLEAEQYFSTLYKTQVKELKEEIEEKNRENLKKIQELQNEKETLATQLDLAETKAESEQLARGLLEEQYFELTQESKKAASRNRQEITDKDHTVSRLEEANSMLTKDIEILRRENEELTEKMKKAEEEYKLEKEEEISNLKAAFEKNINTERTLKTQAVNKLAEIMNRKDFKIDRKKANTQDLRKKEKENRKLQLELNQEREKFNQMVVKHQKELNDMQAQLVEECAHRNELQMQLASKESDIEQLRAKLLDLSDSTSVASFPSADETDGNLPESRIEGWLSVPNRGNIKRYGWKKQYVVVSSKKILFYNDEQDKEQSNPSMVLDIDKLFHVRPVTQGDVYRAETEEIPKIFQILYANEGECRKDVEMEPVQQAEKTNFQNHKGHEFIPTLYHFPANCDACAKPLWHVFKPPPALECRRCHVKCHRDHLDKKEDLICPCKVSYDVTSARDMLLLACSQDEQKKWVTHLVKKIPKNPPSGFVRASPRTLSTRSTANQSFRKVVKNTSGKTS

Structure (SMILES)	Ki (Rho kinase 2 (ROCK-II))	Ki (Rho kinase 1 (ROCK-I))
NC(Cc1ccc(Oc2ccnc3[nH]ccc23)cc1)C(=O)Nc1ccc(C(F)(F)F)cc1 (single isomer, unassigned) [Example 91B, 3-(4-((1H-pyrrolo[2,3-b]pyridin-4-yl)oxy)phenyl)-2-amino-N-(4-(trifluoromethyl)phenyl)propanamide]	3 to 30 nM	3 to 30 nM
N[C@@H](Cc1ccc(Oc2ccnc3[nH]cc(C4=CCNC4)c23)cc1)C(=O)N1CCN(Cc2ccccc2)CC1 [Example 202, (S)-2-amino-1-(4-benzylpiperazin-1-yl)-3-(4-((3-(2,5-dihydro-1H-pyrrol-3-yl)-1H-pyrrolo[2,3-b]pyridin-4-yl)oxy)phenyl)propan-1-one]	3 to 30 nM	3 to 30 nM
N#Cc1c[nH]c2nccc(Oc3ccc(C[C@H](N)C(=O)N4CCN(Cc5ccccn5)CC4)cc3F)c12 [Example 224, (S)-4-(4-(2-amino-3-oxo-3-(4-(pyridin-2-ylmethyl)piperazin-1-yl)propyl)-2-fluorophenoxy)-1H-pyrrolo[2,3-b]pyridine-3-carbonitrile]	< 3 nM	< 3 nM
Cc1c[nH]c2ncnc(Oc3ccc(C[C@H](N)C(=O)N4CCN(C5CC5)CC4)cc3F)c12 [Example 119, (S)-2-amino-1-(4-cyclopropylpiperazin-1-yl)-3-(3-fluoro-4-((5-methyl-7H-pyrrolo[2,3-d]pyrimidin-4-yl)oxy)phenyl)propan-1-one]	< 3 nM	< 3 nM
Cc1c[nH]c2nccc(Oc3ccc(C[C@H](N)C(=O)N4CCN(C(=O)c5cn(C)cn5)CC4)cc3F)c12 [Example 176, (S)-2-amino-3-(3-fluoro-4-((3-methyl-1H-pyrrolo[2,3-b]pyridin-4-yl)oxy)phenyl)-1-(4-(1-methyl-1H-imidazole-4-carbonyl)piperazin-1-yl)propan-1-one]	< 3 nM	3 to 30 nM
Cc1cc2c(Oc3ccc(C[C@H](N)C(=O)N4CCN(Cc5ccccc5)CC4)cc3F)ccnc2[nH]1 [Example 86, (S)-2-amino-1-(4-benzylpiperazin-1-yl)-3-(3-fluoro-4-((2-methyl-1H-pyrrolo[2,3-b]pyridin-4-yl)oxy)phenyl)propan-1-one]	> 30 nM	> 30 nM
Cc1c[nH]c2nccc(Oc3ccc(C[C@H](N)C(=O)NC4CCN(C)CC4)cc3F)c12 [Example 1, (S)-2-amino-3-(3-fluoro-4-((3-methyl-1H-pyrrolo[2,3-b]pyridin-4-yl)oxy)phenyl)-N-(1-methylpiperidin-4-yl)propanamide]	< 3 nM	< 3 nM
Cc1c[nH]c2nccc(Oc3ccc(C[C@H](N)C(=O)N4CCN(Cc5ccccn5)CC4)cc3F)c12 [Example 27, (S)-2-amino-3-(3-fluoro-4-((3-methyl-1H-pyrrolo[2,3-b]pyridin-4-yl)oxy)phenyl)-1-(4-(pyridin-2-ylmethyl)piperazin-1-yl)propan-1-one]	< 3 nM	< 3 nM
Cc1c[nH]c2nccc(Oc3ccc(C[C@H](N)C(=O)NC4(CCO)CCCCC4)cc3F)c12 [Example 36, (S)-2-amino-3-(3-fluoro-4-((3-methyl-1H-pyrrolo[2,3-b]pyridin-4-yl)oxy)phenyl)-N-(1-(2-hydroxyethyl)cyclohexyl)propanamide]	< 3 nM	< 3 nM
Cc1c[nH]c2nccc(Oc3ccc(C[C@H](N)C(=O)N4C[C@@H]5C[C@H]4CN5Cc4ccccc4)cc3F)c12 [Example 24, (S)-2-amino-1-((1S,4S)-5-benzyl-2,5-diazabicyclo[2.2.1]heptan-2-yl)-3-(3-fluoro-4-((3-methyl-1H-pyrrolo[2,3-b]pyridin-4-yl)oxy)phenyl)propan-1-one]	< 3 nM	< 3 nM
N[C@H](Cc1ccc(Oc2ccnc3[nH]ccc23)cc1)C(=O)NC1CCOCC1 [Example 100, (R)-3-(4-((1H-pyrrolo[2,3-b]pyridin-4-yl)oxy)phenyl)-2-amino-N-(tetrahydro-2H-pyran-4-yl)propanamide]	> 30 nM	> 30 nM
Cc1c[nH]c2nccc(Oc3ccc(C[C@H](N)C(=O)NC4(C#N)CCCCC4)cc3F)c12 [Example 34, (S)-2-amino-N-(1-cyanocyclohexyl)-3-(3-fluoro-4-((3-methyl-1H-pyrrolo[2,3-b]pyridin-4-yl)oxy)phenyl)propanamide]	< 3 nM	< 3 nM
Cc1c[nH]c2nccc(Oc3ccc(C[C@H](N)C(=O)NC4CCCCC4)cc3)c12 [Example 141, (S)-2-amino-N-cyclohexyl-3-(4-((3-methyl-1H-pyrrolo[2,3-b]pyridin-4-yl)oxy)phenyl)propanamide]	< 3 nM	< 3 nM
Cc1ccc(CN2CCN(C(=O)C(N)Cc3ccc(Oc4ccnc5[nH]cc(C)c45)c(F)c3)CC2)cc1 (centres unmarked) [Example 72, 2-amino-3-(3-fluoro-4-((3-methyl-1H-pyrrolo[2,3-b]pyridin-4-yl)oxy)phenyl)-1-(4-(4-methylbenzyl)piperazin-1-yl)propan-1-one]	< 3 nM	< 3 nM
CN(C)C(=O)C(Cc1ccc(Oc2ccnc3[nH]ccc23)cc1)NC(=O)C1CCNC1 (centres unmarked) [Example 178, N-(3-(4-((1H-pyrrolo[2,3-b]pyridin-4-yl)oxy)phenyl)-1-(dimethylamino)-1-oxopropan-2-yl)pyrrolidine-3-carboxamide]	> 30 nM	> 30 nM
Cc1c[nH]c2nccc(Oc3ccc(CC(N)C(=O)N4CCN(Cc5ccccc5)CC4)cc3F)c12 (single isomer, unassigned) [Example 132A, 2-amino-1-(4-benzylpiperazin-1-yl)-3-(3-fluoro-4-((3-methyl-1H-pyrrolo[2,3-b]pyridin-4-yl)oxy)phenyl)propan-1-one]	< 3 nM	< 3 nM
Cc1c[nH]c2nccc(Oc3ccc(C[C@H](N)C(=O)N4CCC(Oc5cccnc5)CC4)cc3F)c12 [Example 11, (S)-2-amino-3-(3-fluoro-4-((3-methyl-1H-pyrrolo[2,3-b]pyridin-4-yl)oxy)phenyl)-1-(4-(pyridin-3-yloxy)piperidin-1-yl)propan-1-one]	< 3 nM	< 3 nM
Cc1c[nH]c2nccc(Oc3ccc(C[C@H](N)C(=O)N[C@H]4CN5CCC4CC5)cc3F)c12 [Example 46, (S)-2-amino-3-(3-fluoro-4-((3-methyl-1H-pyrrolo[2,3-b]pyridin-4-yl)oxy)phenyl)-N-((R)-quinuclidin-3-yl)propanamide]	< 3 nM	< 3 nM
N[C@@H](Cc1ccc(Oc2ccnc3[nH]ccc23)c(F)c1)C(=O)NC1CCCCC1 [Example 146, (S)-3-(4-((1H-pyrrolo[2,3-b]pyridin-4-yl)oxy)-3-fluorophenyl)-2-amino-N-cyclohexylpropanamide]	< 3 nM	< 3 nM
Cc1c[nH]c2nccc(Oc3ccc(C[C@H](N)C(=O)NC4(CO)CCOCC4)cc3F)c12 [Example 33, (S)-2-amino-3-(3-fluoro-4-((3-methyl-1H-pyrrolo[2,3-b]pyridin-4-yl)oxy)phenyl)-N-(4-(hydroxymethyl)tetrahydro-2H-pyran-4-yl)propanamide]	< 3 nM	< 3 nM
Cc1c[nH]c2ncnc(Oc3ccc(C[C@H](N)C(=O)N4C[C@@H](C)N(C)[C@@H](C)C4)cc3F)c12 [Example 129, (S)-2-amino-3-(3-fluoro-4-((5-methyl-7H-pyrrolo[2,3-d]pyrimidin-4-yl)oxy)phenyl)-1-((3S,5R)-3,4,5-trimethylpiperazin-1-yl)propan-1-one]	< 3 nM	< 3 nM
N[C@@H](Cc1ccc(Oc2ccnc3[nH]cc(Br)c23)cc1)C(=O)NC1CCCCC1 [Example 188, (S)-2-amino-3-(4-((3-bromo-1H-pyrrolo[2,3-b]pyridin-4-yl)oxy)phenyl)-N-cyclohexylpropanamide]	< 3 nM	< 3 nM
N[C@@H](Cc1ccc(Oc2ccnc3[nH]cc(-c4ccccc4)c23)cc1)C(=O)N1CCN(Cc2ccccc2)CC1 [Example 199, (S)-2-amino-1-(4-benzylpiperazin-1-yl)-3-(4-((3-phenyl-1H-pyrrolo[2,3-b]pyridin-4-yl)oxy)phenyl)propan-1-one]	< 3 nM	< 3 nM
Cc1c[nH]c2nccc(Oc3ccc(C[C@H](N)C(=O)N4CC5(CN(C)C5)C4)cc3F)c12 [Example 3, (S)-2-amino-3-(3-fluoro-4-((3-methyl-1H-pyrrolo[2,3-b]pyridin-4-yl)oxy)phenyl)-1-(6-methyl-2,6-diazaspiro[3.3]heptan-2-yl)propan-1-one]	3 to 30 nM	3 to 30 nM
CN(C(=O)[C@H](N)Cc1ccc(Oc2ccnc3[nH]ccc23)cc1)C1CCCCC1 [Example 102, (R)-3-(4-((1H-pyrrolo[2,3-b]pyridin-4-yl)oxy)phenyl)-2-amino-N-eyclohexyl-N-methylpropanamide]	> 30 nM	> 30 nM
Cc1c[nH]c2ncnc(Oc3ccc(C[C@H](N)C(=O)N4CCC(S(=O)(=O)c5ccccc5)CC4)cc3F)c12 [Example 127, (S)-2-amino-3-(3-fluoro-4-((5-methyl-7H-pyrrolo[2,3-d]pyrimidin-4-yl)oxy)phenyl)-1-(4-(phenylsulfonyl)piperidin-1-yl)propan-1-one]	< 3 nM	< 3 nM
N[C@@H](Cc1ccc(Oc2ccnc3[nH]cc(Br)c23)cc1)C(=O)NC1CCOCC1 [Example 189, (S)-2-amino-3-(4-((3-bromo-1H-pyrrolo[2,3-b]pyridin-4-yl)oxy)phenyl)-N-(tetrahydro-2H-pyran-4-yl)propanamide]	< 3 nM	< 3 nM
Cc1c[nH]c2nccc(Oc3ccc(C[C@H](N)C(=O)N4CCN(C)C(c5ccccc5)C4)cc3F)c12 (mixture of isomers) [Example 6, (2S)-2-amino-3-(3-fluoro-4-((3-methyl-1H-pyrrolo[2,3-b]pyridin-4-yl)oxy)phenyl)-1-(4-methyl-3-phenylpiperazin-1-yl)propan-1-one]	< 3 nM	< 3 nM
